Data reported in PMC11345841, “Exploring 2-Sulfonylpyrimidine Warheads as Acrylamide Surrogates for Targeted Covalent Inhibition: A BTK Story” (Journal of Medicinal Chemistry, 2024).
Where two headings read alike, the source gives them in different places.

Columns and labels:
Assay in all cases: KINOMEscan ScanTK
Format in all cases: binding
[1] = target: T1, ABL1(F317I)-phosphorylated (Homo sapiens, UniProt P00519, F317I)
T1 construct: purchased Eurofins DiscoverX KINOMEscan (scanTK)

[2] = target: T2, ALK(L1196M) (Homo sapiens, UniProt Q9UM73, L1196M)
T2 construct: purchased Eurofins DiscoverX KINOMEscan (scanTK)

[3] = target: T3, EPHB4 (Homo sapiens, UniProt P54760)
T3 construct: purchased Eurofins DiscoverX KINOMEscan (scanTK)
T3 sequence (P54760 16-987): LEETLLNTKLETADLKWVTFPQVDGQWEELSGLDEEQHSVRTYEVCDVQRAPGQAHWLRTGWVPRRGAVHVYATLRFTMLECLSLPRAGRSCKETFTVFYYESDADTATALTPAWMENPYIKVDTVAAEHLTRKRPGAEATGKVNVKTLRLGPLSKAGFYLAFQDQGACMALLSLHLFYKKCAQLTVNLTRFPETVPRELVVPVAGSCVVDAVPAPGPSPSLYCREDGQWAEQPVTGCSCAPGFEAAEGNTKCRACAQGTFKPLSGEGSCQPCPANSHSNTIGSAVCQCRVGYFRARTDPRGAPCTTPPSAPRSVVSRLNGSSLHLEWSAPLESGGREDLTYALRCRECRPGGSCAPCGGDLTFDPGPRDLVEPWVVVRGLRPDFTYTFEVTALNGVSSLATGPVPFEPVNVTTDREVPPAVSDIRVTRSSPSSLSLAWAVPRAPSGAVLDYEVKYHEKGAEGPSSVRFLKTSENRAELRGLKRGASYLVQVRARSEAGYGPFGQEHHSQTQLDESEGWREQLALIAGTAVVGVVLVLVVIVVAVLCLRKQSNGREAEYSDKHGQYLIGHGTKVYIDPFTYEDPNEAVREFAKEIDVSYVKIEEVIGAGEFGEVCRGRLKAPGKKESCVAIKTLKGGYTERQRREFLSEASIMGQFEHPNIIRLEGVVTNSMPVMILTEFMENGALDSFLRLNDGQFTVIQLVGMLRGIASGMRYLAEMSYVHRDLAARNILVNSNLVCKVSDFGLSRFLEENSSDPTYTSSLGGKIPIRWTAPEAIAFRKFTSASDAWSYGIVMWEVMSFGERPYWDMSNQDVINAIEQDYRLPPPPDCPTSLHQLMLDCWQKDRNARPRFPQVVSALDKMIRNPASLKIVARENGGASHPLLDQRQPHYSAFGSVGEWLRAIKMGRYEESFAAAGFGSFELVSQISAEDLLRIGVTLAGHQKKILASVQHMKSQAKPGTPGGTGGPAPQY

[4] = target: T4, JAK1(JH2domain-pseudokinase) (Homo sapiens, UniProt P23458)
T4 construct: JAK1(JH2domain-pseudokinase); purchased Eurofins DiscoverX KINOMEscan (scanTK)

[5] = target: T5, JAK3(JH1domain-catalytic) (Homo sapiens, UniProt P52333); details: for inhibition at 1 µM: ScanTK
T5 construct: JAK3(JH1domain-catalytic); purchased Eurofins DiscoverX KINOMEscan (scanTK)

[6] = target: T6, KIT(L576P) (Homo sapiens, UniProt P10721, L576P)
T6 construct: purchased Eurofins DiscoverX KINOMEscan (scanTK)

[7] = target: T7, MET (Homo sapiens, UniProt P08581)
T7 construct: purchased Eurofins DiscoverX KINOMEscan (scanTK)

[8] = target: T8, PDGFRA (Homo sapiens, UniProt P16234)
T8 construct: purchased Eurofins DiscoverX KINOMEscan (scanTK)

[9] = target: T9, RET (Homo sapiens, UniProt P07949)
T9 construct: purchased Eurofins DiscoverX KINOMEscan (scanTK)

[10] = target: T10, TRKC (Homo sapiens, UniProt Q16288)
T10 construct: purchased Eurofins DiscoverX KINOMEscan (scanTK)

[11] = target: T11, ABL1(F317L)-phosphorylated (Homo sapiens, UniProt P00519, F317L)
T11 construct: purchased Eurofins DiscoverX KINOMEscan (scanTK)

[12] = target: T12, ABL1-nonphosphorylated (Homo sapiens, UniProt P00519)
T12 construct: purchased Eurofins DiscoverX KINOMEscan (scanTK)

[13] = target: T13, EGFR(G719S) (Homo sapiens, UniProt P00533, G719S)
T13 construct: purchased Eurofins DiscoverX KINOMEscan (scanTK)

[14] = @1000nM, JAK3(JH1domain-catalytic), read-out: %Control
[15] = JAK3(JH1domain-catalytic), read-out: %Control @1000nM

T1 sequence (P00519 whole entry F317I): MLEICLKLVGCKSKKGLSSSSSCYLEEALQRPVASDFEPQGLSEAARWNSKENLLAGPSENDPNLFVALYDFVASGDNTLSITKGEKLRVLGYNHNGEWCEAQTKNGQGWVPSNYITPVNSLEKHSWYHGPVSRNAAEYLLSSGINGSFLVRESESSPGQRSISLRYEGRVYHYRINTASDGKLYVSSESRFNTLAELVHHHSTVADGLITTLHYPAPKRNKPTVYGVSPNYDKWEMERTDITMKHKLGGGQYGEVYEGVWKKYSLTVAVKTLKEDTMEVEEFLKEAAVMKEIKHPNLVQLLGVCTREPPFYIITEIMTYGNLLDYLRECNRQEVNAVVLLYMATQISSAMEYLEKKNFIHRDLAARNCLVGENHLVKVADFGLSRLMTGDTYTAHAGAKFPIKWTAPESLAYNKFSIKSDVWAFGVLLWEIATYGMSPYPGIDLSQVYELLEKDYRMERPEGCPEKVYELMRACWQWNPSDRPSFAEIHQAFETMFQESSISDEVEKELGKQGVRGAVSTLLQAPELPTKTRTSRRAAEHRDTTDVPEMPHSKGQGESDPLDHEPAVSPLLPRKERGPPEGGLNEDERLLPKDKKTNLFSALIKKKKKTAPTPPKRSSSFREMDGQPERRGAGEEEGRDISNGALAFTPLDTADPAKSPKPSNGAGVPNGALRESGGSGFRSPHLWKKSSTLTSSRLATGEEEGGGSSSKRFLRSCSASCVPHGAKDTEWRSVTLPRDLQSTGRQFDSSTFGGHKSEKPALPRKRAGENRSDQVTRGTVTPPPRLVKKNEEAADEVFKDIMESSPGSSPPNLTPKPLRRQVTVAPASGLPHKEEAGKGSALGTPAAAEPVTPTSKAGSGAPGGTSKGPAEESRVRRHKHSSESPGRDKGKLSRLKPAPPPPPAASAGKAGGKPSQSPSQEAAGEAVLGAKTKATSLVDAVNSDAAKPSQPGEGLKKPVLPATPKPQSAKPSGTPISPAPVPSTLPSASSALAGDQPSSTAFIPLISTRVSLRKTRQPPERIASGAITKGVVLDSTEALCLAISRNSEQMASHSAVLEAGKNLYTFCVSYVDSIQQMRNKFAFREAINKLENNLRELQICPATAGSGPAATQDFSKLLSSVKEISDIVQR
T6 sequence (P10721 26-976 L576P): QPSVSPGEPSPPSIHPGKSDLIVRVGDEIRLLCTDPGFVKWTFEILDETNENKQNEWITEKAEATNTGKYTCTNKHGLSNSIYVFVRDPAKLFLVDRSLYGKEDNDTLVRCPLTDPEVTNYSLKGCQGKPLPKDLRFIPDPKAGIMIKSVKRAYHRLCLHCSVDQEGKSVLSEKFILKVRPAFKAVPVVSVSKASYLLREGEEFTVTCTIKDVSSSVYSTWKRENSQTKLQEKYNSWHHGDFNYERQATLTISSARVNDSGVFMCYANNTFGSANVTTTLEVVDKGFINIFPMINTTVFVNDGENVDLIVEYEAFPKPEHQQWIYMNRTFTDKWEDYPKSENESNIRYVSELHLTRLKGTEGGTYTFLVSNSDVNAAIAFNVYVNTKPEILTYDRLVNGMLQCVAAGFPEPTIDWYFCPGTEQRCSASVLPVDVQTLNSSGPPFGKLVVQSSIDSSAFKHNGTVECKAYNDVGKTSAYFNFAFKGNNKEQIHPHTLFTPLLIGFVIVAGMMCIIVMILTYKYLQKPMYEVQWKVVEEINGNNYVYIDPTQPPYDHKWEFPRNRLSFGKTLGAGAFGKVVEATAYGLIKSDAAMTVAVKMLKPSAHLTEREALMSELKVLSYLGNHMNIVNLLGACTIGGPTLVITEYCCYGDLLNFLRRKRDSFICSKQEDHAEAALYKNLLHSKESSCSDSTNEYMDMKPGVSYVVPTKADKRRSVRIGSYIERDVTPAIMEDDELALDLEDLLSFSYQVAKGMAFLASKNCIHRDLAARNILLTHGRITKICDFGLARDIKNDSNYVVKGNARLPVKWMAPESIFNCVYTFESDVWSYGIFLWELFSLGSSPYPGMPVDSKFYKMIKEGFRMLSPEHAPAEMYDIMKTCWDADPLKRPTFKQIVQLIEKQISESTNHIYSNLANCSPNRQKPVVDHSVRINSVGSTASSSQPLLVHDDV
T13 sequence (P00533 25-1210 G719S): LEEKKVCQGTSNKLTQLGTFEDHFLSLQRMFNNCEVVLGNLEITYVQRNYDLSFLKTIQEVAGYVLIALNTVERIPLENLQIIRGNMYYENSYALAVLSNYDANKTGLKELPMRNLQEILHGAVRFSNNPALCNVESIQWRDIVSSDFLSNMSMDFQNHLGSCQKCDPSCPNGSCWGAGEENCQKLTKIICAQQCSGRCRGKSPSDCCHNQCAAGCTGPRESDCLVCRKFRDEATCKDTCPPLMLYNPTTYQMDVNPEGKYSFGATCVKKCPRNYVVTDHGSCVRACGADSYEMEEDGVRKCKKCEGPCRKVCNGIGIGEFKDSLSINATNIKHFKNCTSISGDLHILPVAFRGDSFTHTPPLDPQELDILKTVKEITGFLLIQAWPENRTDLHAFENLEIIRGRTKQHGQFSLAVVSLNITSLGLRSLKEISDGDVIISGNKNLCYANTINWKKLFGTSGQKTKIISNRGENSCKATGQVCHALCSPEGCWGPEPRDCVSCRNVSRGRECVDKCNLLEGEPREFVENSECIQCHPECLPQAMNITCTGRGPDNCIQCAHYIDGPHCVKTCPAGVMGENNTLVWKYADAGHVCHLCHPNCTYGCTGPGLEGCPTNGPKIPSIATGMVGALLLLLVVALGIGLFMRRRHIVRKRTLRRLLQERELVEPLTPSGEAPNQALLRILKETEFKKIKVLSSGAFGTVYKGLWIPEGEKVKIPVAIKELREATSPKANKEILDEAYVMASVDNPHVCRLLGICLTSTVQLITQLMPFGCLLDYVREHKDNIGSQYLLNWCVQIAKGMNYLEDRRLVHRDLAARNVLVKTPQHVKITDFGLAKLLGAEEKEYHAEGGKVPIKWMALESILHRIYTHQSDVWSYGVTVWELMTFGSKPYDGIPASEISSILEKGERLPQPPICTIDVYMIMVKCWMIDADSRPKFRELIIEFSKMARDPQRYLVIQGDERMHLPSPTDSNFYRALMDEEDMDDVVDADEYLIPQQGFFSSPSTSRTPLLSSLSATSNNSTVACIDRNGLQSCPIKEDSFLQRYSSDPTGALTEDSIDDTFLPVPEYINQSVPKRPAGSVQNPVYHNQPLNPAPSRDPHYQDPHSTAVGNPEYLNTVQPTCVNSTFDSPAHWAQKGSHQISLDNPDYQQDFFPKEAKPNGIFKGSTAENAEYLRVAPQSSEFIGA
T12 sequence (P00519 whole entry): as the sequence (P00519 whole entry F317I) above, with I317F counted along it
T5 sequence (P52333 822-1124 limits assumed): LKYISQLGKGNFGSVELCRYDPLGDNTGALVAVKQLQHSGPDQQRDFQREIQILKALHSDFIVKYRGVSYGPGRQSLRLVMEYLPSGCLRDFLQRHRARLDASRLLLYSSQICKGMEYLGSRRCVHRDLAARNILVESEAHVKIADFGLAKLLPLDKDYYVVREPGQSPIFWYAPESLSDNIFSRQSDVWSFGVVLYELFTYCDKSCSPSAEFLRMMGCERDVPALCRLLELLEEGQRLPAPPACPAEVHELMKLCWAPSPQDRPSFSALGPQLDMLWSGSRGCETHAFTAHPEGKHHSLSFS
T10 sequence (Q16288 32-839): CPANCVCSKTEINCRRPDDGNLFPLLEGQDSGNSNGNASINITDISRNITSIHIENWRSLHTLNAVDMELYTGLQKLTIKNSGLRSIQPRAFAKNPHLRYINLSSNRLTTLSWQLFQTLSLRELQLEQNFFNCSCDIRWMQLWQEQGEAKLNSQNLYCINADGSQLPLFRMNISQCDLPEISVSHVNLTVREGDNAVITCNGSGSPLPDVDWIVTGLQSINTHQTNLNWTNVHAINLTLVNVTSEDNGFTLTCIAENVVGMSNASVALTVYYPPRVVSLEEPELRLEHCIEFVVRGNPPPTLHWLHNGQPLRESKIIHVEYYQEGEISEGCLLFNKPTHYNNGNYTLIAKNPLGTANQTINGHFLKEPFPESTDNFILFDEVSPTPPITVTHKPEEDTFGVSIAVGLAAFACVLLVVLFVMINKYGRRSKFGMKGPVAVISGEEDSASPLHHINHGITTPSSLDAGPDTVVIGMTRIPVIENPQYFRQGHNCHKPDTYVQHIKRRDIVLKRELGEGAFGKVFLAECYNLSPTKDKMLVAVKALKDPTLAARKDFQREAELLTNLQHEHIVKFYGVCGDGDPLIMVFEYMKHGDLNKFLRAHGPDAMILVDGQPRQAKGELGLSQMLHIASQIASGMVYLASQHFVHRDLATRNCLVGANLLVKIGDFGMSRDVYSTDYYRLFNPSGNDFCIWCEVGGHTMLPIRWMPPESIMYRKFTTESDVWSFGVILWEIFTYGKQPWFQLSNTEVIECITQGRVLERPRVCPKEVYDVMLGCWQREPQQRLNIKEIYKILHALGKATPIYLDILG
T4 sequence (P23458 583-855 limits assumed): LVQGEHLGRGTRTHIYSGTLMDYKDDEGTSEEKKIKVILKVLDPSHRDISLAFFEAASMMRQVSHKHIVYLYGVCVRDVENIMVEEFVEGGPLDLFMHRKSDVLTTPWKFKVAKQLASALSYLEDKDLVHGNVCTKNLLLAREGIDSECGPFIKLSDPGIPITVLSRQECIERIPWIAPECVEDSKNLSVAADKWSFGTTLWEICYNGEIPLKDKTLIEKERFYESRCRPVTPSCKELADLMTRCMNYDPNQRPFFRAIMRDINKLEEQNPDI
T11 sequence (P00519 whole entry F317L): as the sequence (P00519 whole entry F317I) above, with I317L counted along it

SMILES | remaining binding at 1 µM ([1]; @1000nM, read-out: %Control) | remaining binding at 1 µM ([1]; read-out: %Control @1000nM) | remaining binding at 1 µM ([2]; @1000nM, read-out: %Control) | remaining binding at 1 µM ([2]; read-out: %Control @1000nM) | remaining binding at 1 µM ([3]; @1000nM, read-out: %Control) | remaining binding at 1 µM ([3]; read-out: %Control @1000nM) | remaining binding at 1 µM ([4]; @1000nM, read-out: %Control) | remaining binding at 1 µM ([4]; read-out: %Control @1000nM) | remaining binding at 1 µM [5, 14] | remaining binding at 1 µM [5, 15] | inhibition at 1 µM [5] | remaining binding at 1 µM ([6]; @1000nM, read-out: %Control) | remaining binding at 1 µM ([6]; read-out: %Control @1000nM) | remaining binding at 1 µM ([7]; @1000nM, read-out: %Control) | remaining binding at 1 µM ([7]; read-out: %Control @1000nM) | remaining binding at 1 µM ([8]; @1000nM, read-out: %Control) | remaining binding at 1 µM ([8]; read-out: %Control @1000nM) | remaining binding at 1 µM ([9]; @1000nM, read-out: %Control) | remaining binding at 1 µM ([9]; read-out: %Control @1000nM) | other results
C=CC(=O)N1CCC[C@@H](n2nc(-c3ccc(Oc4ccccc4)cc3)c3c(N)ncnc32)C1 [Compound 1g, Ibrutinib, reference compound] | 73% | 73% | 100% | 100% | 100% | 100% | 95% | 95% | 5.5% | 5.5% | 95% | 32% | 32% | 100% | 100% | 49% | 49% | 12% | 12% | remaining binding at 1 µM ([10]; read-out: %Control): 95%; remaining binding at 1 µM ([10]; read-out: %Control @1000nM): 95%
Cc1cnc(S(C)(=O)=O)nc1N1CCCC(n2nc(-c3ccc(Oc4ccccc4)cc3)c3c(N)ncnc32)C1 (stereo not shown) [Compound 8a, 1-(1-(5-Methyl-2-(methylsulfonyl)pyrimidin-4-yl)piperidin-3-yl)-3-(4-phenoxyphenyl)-1H-pyrazolo[3,4-d]pyrimidin-4-amine] | 90% | 90% | 95% | 95% | 100% | 100% | 100% | 100% | 100% | 100% | < 1% | 44% | 44% | 100% | 100% | 72% | 72% | 56% | 56% | difference in %Control from reference compound Ib at 1 µM ([1]; @1000nM): 17%; difference in %Control from compound Ib at 1 µM ([11]; @1000nM): 15%; remaining binding at 1 µM ([11]; @1000nM, read-out: %Control): 52%; remaining binding at 1 µM ([11]; read-out: %Control @1000nM): 52%; difference in %Control from reference compound Ib at 1 µM ([12]; @1000nM): 38.5%; remaining binding at 1 µM ([12]; @1000nM, read-out: %Control): 47%; remaining binding at 1 µM ([12]; read-out: %Control @1000nM): 47%; difference in % of control vs compound Ib at 1 µM ([2]; @1000nM): -5%; difference in %Control from compound Ib at 1 µM ([13]; @1000nM): 95.4%; remaining binding at 1 µM ([13]; @1000nM, read-out: %Control): 96%; remaining binding at 1 µM ([13]; read-out: %Control @1000nM): 96%; difference in %Control from compound Ib at 1 µM ([3]; @1000nM): 0%; %Control difference versus compound Ib at 1 µM ([4]; @1000nM): 5%; difference in %Control from compound Ib at 1 µM ([5]; @1000nM, JAK3(JH1domain-catalytic)): 94.5%; difference in %Control versus Ib at 1 µM ([6]; @1000nM, read-out: % difference (compound - Ib %Control)): 12%; difference in %Control versus compound Ib at 1 µM ([10]; @1000nM, TRKC): -17%; remaining binding at 1 µM ([10]; @1000nM, TRKC, read-out: %Control): 78%; remaining binding at 1 µM ([10]; TRKC, read-out: %Control @1000nM): 78%
